These results are taken from patent publication US11053234B2 (GlaxoSmithKline Intellectual Property Development Limited, priority 2016, dated 2021).

Each structure is given as a SMILES string. Where a name gives a salt, the structure may show the parent alone.

The subject of one test is normal mice. In words: in vivo assay for muscle function following limb muscle injury. To be noted: FIG. 1.
For the compound `CC(C)(O)[C@H]1CC[C@H](NC(=O)N2CC(Oc3cc(F)cc4scnc34)C2)CC1` [Example 141, 3-((6-Fluorobenzo[d]thiazol-4-yl)oxy)-N-((trans)-4-(2-hydroxypropan-2-yl)cyclohexyl)azetidine-1-carboxamide], the “functional repair dose response curves of H-PGDS inhibition following limb muscle injury” value is “protection and acceleration of functional repair”.

In a further test the test system is male C57BI/6N mice. In words: In vivo assay for functional response to muscle injury (eccentric contraction-induced muscle fatigue). To be noted: PO 3, 10 and 30 mg/kg BID beginning 10 min prior to eccentric contraction challenge; vs vehicle; FIG. 1. On the set-up: species or system mouse. An excerpt:
In Vivo Assays for Functional Response to Muscle Injury
Under anesthesia, the right hind limb of a mouse is restrained at the knee and the foot attached to a motorized footplate/force transducer. Needle electrodes are inserted into the upper limb, either side of the sciatic nerve and a current sufficient to elicit a maximal muscle contraction is applied. Muscle tension is produced by moving the footplate to lengthen the plantarflexor muscles while the limb is under maximal stimulation. This is repeated 60 times to fatigue the muscles of the lower limb. Anesthesia, limb immobilization and limb stimulation are then repeated at regular intervals to measure maximal isometric force in the recovering limb. 7 to 9 animals are tested for each test condition.
For `CC(C)(O)[C@H]1CC[C@H](NC(=O)N2CC(Oc3cc(F)cc4scnc34)C2)CC1` [Example 141, 3-((6-Fluorobenzo[d]thiazol-4-yl)oxy)-N-((trans)-4-(2-hydroxypropan-2-yl)cyclohexyl)azetidine-1-carboxamide], the “kinetics of recovery of maximal isometric force after eccentric contraction injury” value was “acceleration in the kinetics of recovery”.

The same test, now with this note: PO 3, 10 and 30 mg/kg BID; 24 hours; vs vehicle; FIG. 1.
In the case of `CC(C)(O)[C@H]1CC[C@H](NC(=O)N2CC(Oc3cc(F)cc4scnc34)C2)CC1` [Example 141, 3-((6-Fluorobenzo[d]thiazol-4-yl)oxy)-N-((trans)-4-(2-hydroxypropan-2-yl)cyclohexyl)azetidine-1-carboxamide], the “initial magnitude of the injury, isometric limb force 24-hours following protocol initiation” value is on record as “reduced the initial magnitude of the injury”.

Another test deals with T1, haematopoietic prostaglandin D synthase (H-PGDS) (Homo sapiens, UniProt O60760).
T1 construct: Full length human H-PGDS cDNA (Invitrogen Ultimate ORF 10H13026) was amplified by PCR; 6-His (N); TEV protease cleavage site (N); made in house; host or cells: E. coli BL21 (DE3*), vector pET22b+
T1 sequence (O60760 whole entry): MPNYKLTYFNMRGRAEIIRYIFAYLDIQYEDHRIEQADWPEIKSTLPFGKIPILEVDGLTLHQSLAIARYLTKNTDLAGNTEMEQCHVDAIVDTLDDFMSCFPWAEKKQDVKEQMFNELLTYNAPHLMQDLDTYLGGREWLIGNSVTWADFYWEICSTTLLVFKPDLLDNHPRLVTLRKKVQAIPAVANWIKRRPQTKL
In words: H-PGDS RapidFire high throughput mass spectrometry assay (conversion of PGH2 to PGD2). It counts as biochemical. To be noted: 10 nM H-PGDS, PGH2 formed in situ by COX-2 from arachidonic acid; read-out: Potency Range (mean pIC50) (converted). In a few lines:
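PGH2 substrate generated in situ by COX-2 (full-length human, FLAG-tagged, Sf9-expressed) from arachidonic acid at ˜10 μM, then converted by full-length human His-tagged H-PGDS (E. coli-expressed). RapidFire SPE–triple quadrupole MS measured PGD2 against PGF2α as substrate surrogate to give percent conversion.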
In the case of `CC(C)(O)[C@H]1CC[C@H](NC(=O)N2CC(Oc3cc(F)cc4scnc34)C2)CC1` [Example 141, 3-((6-Fluorobenzo[d]thiazol-4-yl)oxy)-N-((trans)-4-(2-hydroxypropan-2-yl)cyclohexyl)azetidine-1-carboxamide], the IC50 was 0.01 to 0.0794 µM. As for `CC(C)(O)c1cnc(NC(=O)[C@H]2C[C@H](Oc3cccc4ccoc34)C2)s1` [Example 265, (trans)-3-(Benzofuran-7-yloxy)-N-(5-(2-hydroxypropan-2-yl)thiazol-2-yl)cyclobutanecarboxamide], the IC50 was 0.01 to 0.0794 µM. `O=C(NC1CCN(CC(F)(F)F)CC1)[C@H]1C[C@H](Oc2cccc3cccnc23)C1` [Example 224, (trans)-3-(Quinolin-8-yloxy)-N-(1-(2,2,2-trifluoroethyl)piperidin-4-yl)cyclobutanecarboxamide]: the IC50 is 0.01 to 0.0794 µM. Still for that read-out and setting: in the case of `CC(C)(O)[C@H]1CC[C@H](NC(=O)[C@H]2C[C@H](Oc3cccc4scnc34)C2)CC1` [Example 109, (trans)-3-(Benzo[d]thiazol-4-yloxy)-N-((trans)-4-(2-hydroxypropan-2-yl)cyclohexyl)cyclobutanecarboxamide] it was 0.01 to 0.0794 µM; in that of `O=C(Nc1nccs1)[C@H]1C[C@H](Oc2cccc3[nH]cnc23)C1` [Example 297, (trans)-3-((1H-Benzo[d]imidazol-4-yl)oxy)-N-(thiazol-2-yl)cyclobutanecarboxamide, di-trifluoroacetic acid salt], 0.1 to 1 µM. With `CCc1cccc(O[C@H]2C[C@H](C(=O)N[C@H]3CC[C@H](C(C)(C)O)CC3)C2)c1` [Example 285, (trans)-3-(3-Ethylphenoxy)-N-((trans)-4-(2-hydroxypropan-2-yl)cyclohexyl)cyclobutanecarboxamide], the IC50 is 0.1 to 1 µM. In the case of `CC(C)(O)[C@H]1CC[C@H](NC(=O)[C@H]2C[C@H](Oc3cccc4cc(F)cnc34)C2)CC1` [Example 280, (trans)-3-((3-Fluoroquinolin-8-yl)oxy)-N-((trans)-4-(2-hydroxypropan-2-yl)cyclohexyl)cyclobutanecarboxamide], the IC50 is 0.1 to 1 µM.

For the compound `N#Cc1ccc(N2CC(NC(=O)[C@H]3C[C@H](Oc4cccc5scnc45)C3)C2)nc1` [Example 37, (trans)-3-(Benzo[d]thiazol-4-yloxy)-N-(1-(5-cyanopyridin-2-yl)azetidin-3-yl)cyclobutanecarboxamide], the IC50 was 0.01 to 0.0794 µM. Same read-out and setting: in the case of `COc1ccc(F)cc1O[C@H]1C[C@H](C(=O)NC2CCN(c3nnnn3C)CC2)C1` [Example 152, (trans)-3-(5-Fluoro-2-methoxyphenoxy)-N-(1-(1-methyl-1H-tetrazol-5-yl)piperidin-4-yl)cyclobutanecarboxamide] it was 0.01 to 0.0794 µM; in that of `O=C(NC1CN(c2cnccn2)C1)[C@H]1C[C@H](Oc2cc(F)cc3scnc23)C1` [Example 235, (trans)-3-((6-Fluorobenzo[d]thiazol-4-yl)oxy)-N-(1-(pyrazin-2-yl)azetidin-3-yl)cyclobutanecarboxamide], 0.01 to 0.0794 µM. As for `CC(C)(O)CO[C@H]1CC[C@H](NC(=O)[C@H]2C[C@H](Oc3cccc4cccnc34)C2)CC1` [Example 220, (trans)-N-((trans)-4-(2-Hydroxy-2-methylpropoxy)cyclohexyl)-3-(quinolin-8-yloxy)cyclobutanecarboxamide], the IC50 is 0.1 to 1 µM.

As to `CN1CCN([C@H]2CC[C@H](NC(=O)N3CC(Oc4cccc5scnc45)C3)CC2)C1=O` [Example 102, 3-(Benzo[d]thiazol-4-yloxy)-N-((trans)-4-(3-methyl-2-oxoimidazolidin-1-yl)cyclohexyl)azetidine-1-carboxamide], the IC50 was 0.1 to 1 µM. The same measure, in the same setting: the figure for `CC(O)[C@H]1CC[C@H](NC(=O)[C@H]2C[C@H](Oc3cc(F)ccc3OC(F)F)C2)CC1` (mixture of isomers) [Example 26] is 0.01 to 0.0794 µM; for `CC(C)c1nnc(NC(=O)N2CC(Oc3cccc4scnc34)C2)o1` [Example 328, 3-(Benzo[d]thiazol-4-yloxy)-N-(5-isopropyl-1,3,4-oxadiazol-2-yl)azetidine-1-carboxamide] it is 0.1 to 1 µM; for `Cc1nc2c(OC3CN(C(=O)N[C@H]4CC[C@H](C(C)(C)O)CC4)C3)cccc2s1` [Example 300, N-((trans)-4-(2-Hydroxypropan-2-yl)cyclohexyl)-3-((2-methylbenzo[d]thiazol-4-yl)oxy)azetidine-1-carboxamide] it is 1.26 to 2 µM.

For the compound `Cc1nnc(NC(=O)[C@H]2C[C@H](Oc3cccc4scnc34)C2)o1` [Example 79, (trans)-3-(Benzo[d]thiazol-4-yloxy)-N-(5-methyl-1,3,4-oxadiazol-2-yl)cyclobutanecarboxamide], the IC50 was 0.1 to 1 µM.
